Tested on: T1, tubulin (alpha- and beta-tubulin)
T1 construct: with alpha-/beta-tubulin heterodimer
Experiment: cell-free fluorescence-based tubulin polymerization assay (Cytoskeleton BK011P)
Type: biochemical, Bos taurus

IC50: 6.28 µM
SMILES: COc1cccc(C=C2SC(=Nc3ccc(O)cc3)NC2=O)c1 [MHPT, 2-((4-hydroxyphenyl)imino)-5-(3-methoxybenzylidene)thiazolidin-4-one]

Source: paper PMC4374867, “The Novel Tubulin Polymerization Inhibitor MHPT Exhibits Selective Anti-Tumor Activity against Rhabdomyosarcoma In Vitro and In Vivo” (PLoS ONE, 2015)
